Article PMC12378621, “Benzo-ring modification on Malaria Box hit MMV008138: effects on antimalarial potency and microsomal stability” (RSC Medicinal Chemistry, 2025)
Where “and” joins values, the source holds several entries; their conditions need not be identical. Equal values may be shown once. Entries after “also recorded” stand apart in the source; their conditions may differ.

Assays:
[1] = system: P. falciparum (Dd2 strain); assay: Metabolic rescue of parasite growth by isopentenyl diphosphate (IPP) supplementation; assay type: cell-based, Plasmodium falciparum
Method: (§1) […]. MMV008138 (1) was used as control. The percentage of growth was normalized to that of untreated control parasites in the presence of 0.1% DMSO. Background determinations were made using uninfected erythrocytes. Two or more independent experiments in duplicate were performed. The EC50 values were calculated with GraphPad Prism 9 (GraphPad Software Ltd.) using nonlinear regression curve fitting with variable slope (four parameters) and represent the average and their standard error of the mean (S.E.M.). To assess whether 20a–e specifically targeted the apicoplast, the recovery of growth in the presence of inhibitor and isopentenyl diphosphate (IPP) was performed as described previously.[8] Briefly, parasites were grown in the presence or absence of 200 μM IPP along with a serial dilution (10 μM to 0.01 μM) or single concentration (10 or 20 μM) of drug. […] All conditions were set in 96-well half area plates using highly synchronous ring-stage parasite cultures (100 μL per well at 1% hematocrit and 1% parasitemia) and incubated for 72 h under normal culture conditions. Parasite growth was measured by the SYBR green I assay.

[2] = system: Plasmodium berghei ANKA expressing luciferase (PbGFP-Luccon); assay: In vivo efficacy in P. berghei-infected mice (luminescence on Day 7)
Method: 2. In vivo efficacy studies of 1 (NYU) in P. berghei-infected mice (po and iv) Efficacy of 1 in P. berghei-infected mice was assessed at the Anti-Infectives Core Facility, Department of Microbiology, Grossman School of Medicine, New York University.
A. Oral Administration Protocol
Three groups of five female Swiss Webster mice weighing 25 to 30 g were used for vehicle […]
berghei ANKA expressing luciferase (PbGFP-Luccon) obtained from a donor infected mouse.10 […]
2 to 6 and imaged on day 7.
Figure S1. Dosing and imaging timeline of P. berghei-infected mice. […]
Day 7 as described in the text.
The vehicle for all groups was 0.5% (hydroxypropyl)methyl cellulose, 0.5% Tween-80.
For the surviving mice, o n day 7 after infection, mice were anesthetized by inhalation of isofluorane and injected via i.p. with 150 mg/kg of luciferase substrate dissolved in PBS (D-Luciferin Potassium Salt , Gold Biotechnology ).
Mice were imaged 5 to 10 min after inj ection of luciferin using an IVIS imager (Lumina II In Vivo Imaging System; Perkin -Elmer). The data acquisition and analysis were performed with LivingImage (Xenogen). Accumulated light intensity was measured in each mouse to determine the baseline infection levels before treatment .
(§2) (1 picture or pasted object on this page, not shown here)
B. IV Administration Protocol
One group of four female Swiss Webster mice weighing 25 to 30 g were used for vehicle control, and groups of five mice were used for 1 treatment (IV, 2 x 30 mg/kg/d) and the positive […]
On Day 0, mice were infected via intraperitoneal (i.p.) […]
from a donor infected mouse. 10 As shown below in Figure S2 (and legend), mice were treated […]
Figure S2. Dosing and imaging timeline of P. berghei-infected mice. Vehicle and 1 (30 mpk) treatments were administered IV twice -daily on Days 2-6. […]
administered i .p. once-daily. Mice were imaged on Day 7, as described in the text.
The vehicle for this study was 30%PEG, 40% Captisol (30%w/v solution).
Table S2. Luminescence Data after background subtraction for IV dosing of Vehicle, 1, and IP […]
Table S9. Concentration of 20c vs time in mice. […]
Figure S6. Dosing and imaging timeline of P. berghei-infected mice. […]

in vivo = conditions: mouse
Method: 3. Pharmacokinetics of 1 in mice
Pharmacokinetic analysis of 1 in mice was performed by Pharmaron (Beijing, China). Three mice each (23 ± 1 g) were used for oral (40 mg/kg, gavage, conscious) and for IV (10 mg/kg, lateral tail vein with anesthesia) administration. The vehicle for both routes wa s 20% DMSO, 60% PEG400 and 20% SBE-β-CD (30% w/v) in water. Stock concentrations were 4 mg/mL (both oral and IV respectively), and mice were dosed at 10.0 and 2.5 mL/kg (oral and IV respectively).
Quantitation was performed by triple-quad LC-MS.

[3] = system: P. falciparum (Dd2 strain); assay: ABS P. falciparum growth inhibition, SYBR Green I assay, 72 h endpoint; assay type: cell-based, Plasmodium falciparum; conditions: for EC50: Plasmodium falciparum, DD2, Table 2, enantiopure, SYBR Green I, 72 h endpoint, average ± S.E.M, read-out: Dd2 strain P. falciparum growth inhibition EC50
Method: Parasites were maintained in O-positive human erythrocytes (Grifols, Memphis, TN, USA) at 5% hematocrit in RPMI 1640 medium supplemented with 5 g L^−1 Albumax I (Gibco Life Technologies), 2 g L^−1 glucose (Sigma-Aldrich), 2.3 g L^−1 sodium bicarbonate (Sigma-Aldrich), 370 μM hypoxanthine (Sigma-Aldrich), 25 mM HEPES, and 20 mg L^−1 gentamicin (Gibco Life Technologies). The parasites were kept at 37 °C under reduced-oxygen conditions (5% CO2, 5% O2, and 90% N2).
as §1

in vitro [4] = conditions: male, mouse, microsomes; for % remaining, Replicate 1 / Replicate 2: 1 µM; for remaining at 0.5 min, 1 µM / remaining at 5 min, 1 µM / remaining at 10 min, 1 µM / remaining at 0.25 h, 1 µM / remaining at 20 min, 1 µM / remaining at 0.5 h, 1 µM: % remaining, Replicate 1 / Replicate 2
Method: Metabolic stability of 1 was studied in pooled male mouse liver microsomes (final concentration 0.5 mg/mL, 5 mM MgCl 2, 100 mM phosphate buffer). The final concentration of test […]
The mixture was pre-warmed 37°C for 5 min before addition of 50 μL of 10 mM NADPH solution at the final concentration of 1 mM and carried out at 37°C. 50 μL of ultra-pure H2O was used instead of NADPH solution in the […]
negative control. […] Drug […]
concentrations were determined using triple quad LC-MS (Table S5).
as §2

in vitro [5] = conditions: female, CD-1, mouse, microsomes, pH 7.4
Method: Mouse microsomal stability of 20a, 20c, 20d was first assessed in our laboratory. […]
and coumarin were used as controls . Microsomal stability was assessed by ultra-performance liquid chromatography and high -resolution mass spectrometry […]
MA). Potassium phosphate monobasic, potassium phosphate dibasic, and coumarin were purchased from Sigma-Aldrich (St. Louis, MO). Briefly, compound incubations were carried out by the addition of mouse liver microsomes (0.5 mg/ml) in 0.05 M potassium phosphate buffer (pH 7.4), solution A and B, and preincubated at 37°C for 5 min. Control experiments were also carried out in the absence of NADPH solution A and B. Coumarin reaction was used as positive control. Reactions were terminated by adding acetonitrile. Sample analysis was performed on an IonKey/MS system composed of an ACQUITY UPLC M-Class, the ionKey source, and an iKey BEH C18 130 Å 1.7 µm 150 µm x 50 mm column coupled to a Synapt G2-Si mass spectrometer (Waters Corporation, Milford, MA, USA). Separation was accomplished using a binary gradient system consisting of 0.1% formic acid in water (mobile phase A) and 0.1% formic acid in acetonitrile (mobile phase B). The linear gradient was programmed as follows: 0-3 min 1% B, 3- […]
was 3 µL/min, the injection volume was 3 µL in full loop mode, and the iKey temperature was set at 40°C. MS analyses were performed acquiring in MSE mode from 80 to 1500 m/z in positive electrospray ionization mode with a capillary voltage of 3 kV. Data were collected in two channels all the time: low collision energy (6.0 V), for the molecular ions, and high collision energy (15-40 V), for product ions. The source temperature was set at 110°C. Leucine […]
scan at 20 s intervals. Infusion flow rate for lock mass was 1 μL/min. The microsomal stability was determined using MassLynx software (Waters Corporation, Milford, MA, USA). Relative amounts were calculated by comparing the peak area of each evaluated compound at time 0 minutes to its corresponding area at times 45, 90 and 180 minutes to return a ratio.

[6] = Table S10, 40 mg/kg 1 x daily PO Days 2-6, imaged Day 7
[7] = iv, 10 mg/kg, plasma concentration
[8] = po, 40 mg/kg, plasma concentration

## O=C(O)[C@@H]1Cc2c([nH]c3cc(F)ccc23)[C@@H](c2ccc(Cl)cc2Cl)N1 [Compound 20c]
[1]; drug at 2.5 μM
  % recovery (200 μM IPP): 100%@2.5 μM
[2]; 40 mg/kg po Days 2-6, Day 7
  reduction of luminescence relative to vehicle control: did not reduce luminescence
[2]; P. berghei mouse model, oral dosing (20c 5 × 40 mg per kg per day)
  reduction in parasitemia / efficacy: no reduction in parasitemia; also recorded: not efficacious
[2]; [6]
  Luminescence after background subtraction AVG: 9.7E+06
  Luminescence after background subtraction, individual mice: 6.51E+05 and 2.35E+06 and 3.10E+06 and 4.05E+05 and 1.33E+06
In vivo; iv, 10 mg/kg
  AUC(0-inf): 49.6 µM·h
  AUC(0-t): 48.7 µM·h
  C0: 34.5 µM
  clearance: 8.85 mL/min/kg
  tlast: 24 h
In vivo; iv, 10 mg/kg, Cmin
  concentration at 24 h: 0.1 ± 0.1 µM
In vivo; [7]
  concentration at 0.083 h: 33.3 µM
  concentration at 0.25 h: 30.9 ± 4 µM
  concentration at 0.5 h: 14.4 ± 4.1 µM
  concentration at 1 h: 9.7 ± 2 µM
  concentration at 2 h: 3.3 ± 1.5 µM
  concentration at 4 h: 1.4 ± 0.4 µM
  concentration at 8 h: 1.4 ± 0.3 µM
  concentration at 24 h: 0.1 ± 0.1 µM
In vivo; iv, 10 mg/kg, t1/2
  half-life: 4.96 h
In vivo; po, 40 mg/kg
  AUC0-inf: 114 µM·h
  AUC(0-inf): 114 µM·h
  AUC(0-t): 110 µM·h
  Cmax: 19.9 ± 8.1 µM
  Tmax: 0.5 h
  oral AUC0-inf higher than that of 1: 30%
  tlast: 24 h
In vivo; po, 40 mg/kg, % F
  bioavailability: 58%
In vivo; po, 40 mg/kg, %F
  bioavailability: 57.8%
In vivo; po, 40 mg/kg, Cmin
  concentration at 24 h: 0.6 ± 0.6 µM
In vivo; [8]
  concentration at 0.25 h: 19.8 ± 8.1 µM
  concentration at 0.5 h: 19.9 ± 3.2 µM
  concentration at 1 h: 13.9 ± 10.8 µM
  concentration at 2 h: 8.8 ± 5.9 µM
  concentration at 4 h: 10 ± 3.7 µM
  concentration at 8 h: 3.9 ± 0.7 µM
  concentration at 24 h: 0.6 ± 0.06 µM
In vivo; po, 40 mg/kg, t 1/2
  half-life: 5.2 h
In vivo; po, 40 mg/kg, t1/2
  half-life: 5.17 h
[3]
  EC50: 501 ± 47 nM
In vitro [4]; 5 min
  % remaining, Replicate 1 / Replicate 2: 105.2%
In vitro [4]; 10 min
  % remaining, Replicate 1 / Replicate 2: 105.5%
In vitro [4]; 0.25 h
  % remaining, Replicate 1 / Replicate 2: 100.5%
In vitro [4]; 20 min
  % remaining, Replicate 1 / Replicate 2: 100.4%
In vitro [4]; 0.5 h
  % remaining, Replicate 1 / Replicate 2: 85.7%
In vitro [4]
  remaining at 0.5 min, 1 µM: 100%
  remaining at 5 min, 1 µM: 90.9%
  remaining at 10 min, 1 µM: 91.4%
  remaining at 0.25 h, 1 µM: 84.7%
  remaining at 20 min, 1 µM: 85.9%
  remaining at 0.5 h, 1 µM: 95.2%

## O=C(O)[C@@H]1Cc2c([nH]c3c(F)cccc23)[C@@H](c2ccc(Cl)cc2Cl)N1 [Compound 20d]
[1]; drug at 10 μM
  % recovery (200 μM IPP): 100%@10 μM
[3]; Dd2 strain
  loss of growth inhibition potency (EC50) relative to 1: ≤ 3 fold
[3]
  EC50: 717 ± 73 nM
In vitro [4]; 5 min
  % remaining, Replicate 1 / Replicate 2: 56.5%
In vitro [4]; 10 min
  % remaining, Replicate 1 / Replicate 2: 41.8%
In vitro [4]; 0.25 h
  % remaining, Replicate 1 / Replicate 2: 31.5%
In vitro [4]; 20 min
  % remaining, Replicate 1 / Replicate 2: 28.2%
In vitro [4]; 0.5 h
  % remaining, Replicate 1 / Replicate 2: 25.1%
In vitro [4]
  remaining at 0.5 min, 1 µM: 100%
  remaining at 5 min, 1 µM: 61.1%
  remaining at 10 min, 1 µM: 42.6%
  remaining at 0.25 h, 1 µM: 34.3%
  remaining at 20 min, 1 µM: 30.3%
  remaining at 0.5 h, 1 µM: 24.8%

## O=C(O)[C@@H]1Cc2c([nH]c3cccc(F)c23)[C@@H](c2ccc(Cl)cc2Cl)N1 [Compound 20a]
In vitro [5]
  half-life: ~0.167 h
[1]; drug at 2.5 μM
  % recovery (200 μM IPP): 100%@2.5 μM
[3]
  EC50: 451 ± 28 nM
